Reference: the NIST ThermoML archive (doi:10.1016/j.fluid.2018.09.026)
Several values for one entry are separate records, joined by “and”; a condition that tells them apart may be missing. Equal values may be shown once.

Settings: Liquid; for mass density: 333.15 K, Vibrating tube method; for viscosity: Vibrating wire viscometry

OCCOCCOCCO [triethylene glycol]
Settings	mass density [kg/m3]
2100 kPa	1092.7
3070 kPa	1093.2
5060 kPa	1094.2
6980 kPa	1095.2
9970 kPa	1096.6
14840 kPa	1099
19660 kPa	1101.3
24670 kPa	1103.7
29610 kPa	1106
34530 kPa	1108.2
39400 kPa	1110.3
44280 kPa	1112.5
49110 kPa	1114.5
54040 kPa	1116.5
59060 kPa	1118.6
63830 kPa	1120.5
68770 kPa	1122.4

Settings	viscosity
333.21 K, 150 kPa	9.306 mPa·s [middle of 4 runs]
333.21 K, 170 kPa	9.339 mPa·s [middle of 7 runs]
333.21 K, 750 kPa	9.338 mPa·s
333.21 K, 760 kPa	9.422 mPa·s and 9.347 mPa·s
333.21 K, 790 kPa	9.383 mPa·s
333.21 K, 1460 kPa	9.386 mPa·s [middle of 4 runs]
333.21 K, 1470 kPa	9.379 mPa·s and 9.375 mPa·s and 9.363 mPa·s
333.21 K, 4930 kPa	9.61 mPa·s
333.21 K, 4940 kPa	9.609 mPa·s and 9.653 mPa·s
333.21 K, 4950 kPa	9.655 mPa·s [middle of 4 runs]
333.21 K, 4970 kPa	9.688 mPa·s and 9.672 mPa·s
333.21 K, 4980 kPa	9.595 mPa·s and 9.684 mPa·s
333.21 K, 4990 kPa	9.704 mPa·s
333.21 K, 5030 kPa	9.613 mPa·s
333.21 K, 9610 kPa	10.02 mPa·s
333.21 K, 9620 kPa	9.96 mPa·s and 9.899 mPa·s
333.21 K, 9680 kPa	9.927 mPa·s
333.21 K, 9690 kPa	9.942 mPa·s and 9.978 mPa·s
333.21 K, 9700 kPa	9.918 mPa·s
333.21 K, 9720 kPa	9.986 mPa·s
333.21 K, 20900 kPa	10.78 mPa·s
333.21 K, 20930 kPa	10.79 mPa·s
333.21 K, 20940 kPa	10.78 mPa·s and 10.79 mPa·s
333.21 K, 29220 kPa	11.36 mPa·s
333.21 K, 29260 kPa	11.37 mPa·s
333.21 K, 29290 kPa	11.28 mPa·s
333.21 K, 29370 kPa	11.48 mPa·s
333.21 K, 29400 kPa	11.32 mPa·s
333.21 K, 29410 kPa	11.32 mPa·s
333.21 K, 29450 kPa	11.36 mPa·s
333.21 K, 29460 kPa	11.34 mPa·s
333.21 K, 29490 kPa	11.36 mPa·s
333.21 K, 29520 kPa	11.49 mPa·s
333.21 K, 29730 kPa	11.35 mPa·s
333.21 K, 29740 kPa	11.35 mPa·s
333.21 K, 29760 kPa	11.47 mPa·s
333.21 K, 29770 kPa	11.42 mPa·s
333.21 K, 37210 kPa	11.94 mPa·s
333.21 K, 37260 kPa	12.04 mPa·s
333.21 K, 37430 kPa	11.99 mPa·s
333.21 K, 37490 kPa	12.07 mPa·s
333.21 K, 38020 kPa	12.13 mPa·s
333.21 K, 38150 kPa	12.06 mPa·s
333.21 K, 38270 kPa	12.05 mPa·s
333.21 K, 47910 kPa	12.77 mPa·s
333.21 K, 48010 kPa	12.75 mPa·s
333.21 K, 48280 kPa	12.76 mPa·s
333.21 K, 49590 kPa	12.91 mPa·s
333.21 K, 49640 kPa	13.01 mPa·s
333.21 K, 49670 kPa	12.99 mPa·s
333.21 K, 49700 kPa	12.96 mPa·s
333.21 K, 49730 kPa	12.91 mPa·s
333.21 K, 68790 kPa	14.61 mPa·s
333.21 K, 69130 kPa	14.52 mPa·s
333.21 K, 69650 kPa	14.74 mPa·s
343.08 K, 200 kPa	6.978 mPa·s and 6.969 mPa·s and 6.931 mPa·s
343.08 K, 1160 kPa	6.971 mPa·s [middle of 4 runs]
343.08 K, 4890 kPa	7.185 mPa·s
343.08 K, 4900 kPa	7.179 mPa·s and 7.239 mPa·s and 7.214 mPa·s
343.08 K, 9750 kPa	7.392 mPa·s
343.08 K, 9760 kPa	7.403 mPa·s
343.08 K, 9770 kPa	7.403 mPa·s
343.08 K, 20580 kPa	8.071 mPa·s and 7.965 mPa·s
343.08 K, 20590 kPa	8.036 mPa·s and 7.937 mPa·s
343.08 K, 20600 kPa	8.08 mPa·s
343.08 K, 30330 kPa	8.459 mPa·s
343.08 K, 30350 kPa	8.469 mPa·s and 8.515 mPa·s and 8.474 mPa·s
343.08 K, 30390 kPa	8.519 mPa·s
343.08 K, 39560 kPa	8.994 mPa·s
343.08 K, 39590 kPa	9.055 mPa·s
343.08 K, 39640 kPa	9.065 mPa·s
343.08 K, 50360 kPa	9.671 mPa·s
343.08 K, 50420 kPa	9.687 mPa·s
343.08 K, 50470 kPa	9.572 mPa·s
343.08 K, 50570 kPa	9.608 mPa·s
343.08 K, 67230 kPa	10.62 mPa·s
